Test results: patent US20060281806A1, “Treatment and inhibition of disease conditions using flexible heteroarotinoids” (priority 2005, published 2006)

Tests used:
ovarian cancer cells = experiment: Microarray analysis of gene expression in SHetA2-treated ovarian cancer cells; assay type: cell-based, human
Procedure: Microarray analysis was conducted to determine specific disease causing genes which were expressed at higher (>1 fold) or lower (<1 fold) levels than normal in ovarian cancer cells treated with SHetA2 (see Table 6).

[1] = system: HT-3 cervical carcinoma cell line; experiment: In vitro cytotoxicity (SRB growth inhibition) assay, HT-3; assay type: cell-based, human; parameters: dose or concentration left out as unconfirmed; conditions: 72 h
Procedure: The SHetA2, SHetA3, SHetA4, SHet50 and 9-cis-RA compounds were evaluated in 4 cervical carcinoma cell lines. The SiHa, CC-1 and C33a human cervical cell lines were maintained in Minimal Essential Media (MEM) containing Earle's salts and L-glutamine supplemented with nonessential amino acids, 1% sodium pyruvate, 10% fetal bovine serum (FBS) and antibiotic/antimycotic. The HT-3 cervical carcinoma cell line was cultured in McCoy's 5a medium supplemented with 10% FBS and antibiotic/antimycotic. Cells were inoculated into 96 well microtiter plates at densities of 1000 cells/well and incubated for 24 h prior to addition of drugs. Drugs were dissolved in dimethyl sulfoxide (DMSO) and diluted in complete medium, prior to addition to triplicate culture wells to achieve final concentrations of […]. Following drug addition, the plates were incubated for 72 h. The assay was terminated by the addition of cold TCA and the cells were stained with 0.4% sulforhodamine B (SRB) in 1% acetic acid. Bound stain was subsequently solubilized with 10 mM trizma base, and the absorbance was read on an automated plate reader at a wavelength of 560 nm. Growth inhibition was determined by dividing the average Optical Density (OD) of the triplicated treated cultures by the average OD of the triplicate control cultures treated with DMSO solvent only. This ratio was converted into a percentage by multiplying by 100. The potency (concentration required to induce half of the maximal activity—GI50) were derived from dose-response graphs generated with results from 3 to 5 individual experiments using GraphPad Software.

NF-κB = NF-κB luciferase reporter assay in A2780 cultures; assay type: cell-based; conditions: 10 μM SHetA2, inhibition increased over 4 hours
Procedure: FIG. 15. SHetA2 Inhibition of NF-κB. A2780 cultures were transfected with the NF-κB reporter and treated with 10 μM SHetA2 for the indicated times. Cell lysates were prepared and evaluated for luciferase activity which was normalized for protein concentration.
Because both TP and TSP4 have DNA binding sites for the NFκB transcription factor in their promoter, the ability of SHetA2 to inhibit activity of NF-κB in ovarian cancer cultures was tested using a luciferase reporter plasmid driven by NF-κB sites in the promoter. […] Inhibition increased over the 4 hour evaluation time (FIG. 15).

[2] = system: C6 glioma cells injected into the brains of rats; experiment: Rat glioma (brain cancer) model, MRI; assay type: in vivo; conditions: Monday, Wednesday and Friday
Procedure: FIG. 9. SHetA2 inhibition of Angiogenesis. C6 glioma cells were injected into the brains of 2 rats. One week later, one rat was gavaged with 60 mg/kg/day SHetA2 on each Monday, Wednesday and Friday. Blood vessels were imaged by MRI.
FIG. 10. […] C6 glioma cells were injected into the brains of 2 rats. One week later, one rat was gavaged with 60 mg/kg/day SHetA2 on each Monday, Wednesday and Friday. The blood flow was measured by MRI imaging.
FIG. 11. SHetA2 inhibition of glioma tumor growth. C6 glioma cells were injected into the brains of 2 rats. One week later, one rat was gavaged with 60 mg/kg/day SHetA2 on each Monday, Wednesday and Friday. The tumor size was measured by MRI imaging.
In this in vivo model, glioma cells are injected into the brains of rats and the growth of the tumor and development of blood vessels in the tumor is measured by magnetic resonance imaging (MRI).

[3] = oral 60 mg/kg/day, versus untreated control

CC1(C)CC(C)(C)c2cc(NC(=S)Nc3ccc([N+](=O)[O-])cc3)ccc2S1 [SHetA2]
Fold (ovarian cancer cells; gene: 3-hydroxyisobutyrate dehydrogenase, mitochondrial precursor, AK025558): 0.00 Fold
Fold (ovarian cancer cells; gene: A kinase (PRKA) anchor protein 1, clone MGC:1807, BC000729.1): 2.00 Fold
Fold (ovarian cancer cells; gene: A kinase anchor protein S-AKAP84 mRNA, U34074.1): 2.14 Fold
Fold (ovarian cancer cells; gene: ADAMTS1, AK023795.1): 0.43 Fold
Fold (ovarian cancer cells; gene: ADAMTS5, NM_007038.1): 0.23 Fold
Fold (ovarian cancer cells; gene: ASPLTFE3 type 2 fusion protein, ASPLTFE3 type 1 fusion protein mRNA, AY034077.1): 0.46 Fold
Fold (ovarian cancer cells; gene: ATP-binding cassette, sub-family B (MDRTAP), member 6 (ABCB6), NM_005689.1): 0.46 Fold
Fold (ovarian cancer cells; gene: ATP-binding cassette, sub-family D (ALD), member 2 (ABCD2), NM_005164.1): 2.71 Fold
Fold (ovarian cancer cells; gene: Amyotrophic lateral sclerosis 2 (juvenile) chromosome region, candidate 3 (ALS2CR3), NM_015049.1): 0.41 Fold
Fold (ovarian cancer cells; gene: Angiopoietin-like 2 (ANGPTL2), NM_012098.1): 2.16 Fold
Fold (ovarian cancer cells; gene: B-cell CLLlymphoma 3 (BCL3), AI829875): 2.58 Fold
Fold (ovarian cancer cells; gene: B-cell CLLlymphoma 3 (BCL3), NM_005178.1): 2.05 Fold
Fold (ovarian cancer cells; gene: BAGE2 antigen (BAGE2), AF218570.1): 0.34 Fold
Fold (ovarian cancer cells; gene: BAM in multiple myeloma, AF455755.1): 3.05 Fold
Fold (ovarian cancer cells; gene: Butyrophilin (BTF3), Cluster Incl. U90548): 2.15 Fold
Fold (ovarian cancer cells; gene: Butyrophilin, subfamily 3, member A2 (BTN3A2), AI991252): 2.31 Fold
Fold (ovarian cancer cells; gene: Butyrophilin, subfamily 3, member A3 (BTN3A3), NM_006994.2): 2.04 Fold
Fold (ovarian cancer cells; gene: Cervical cancer suppressor gene-4 protein (HCCS-4), AF465843.1): 2.06 Fold
Fold (ovarian cancer cells; gene: Chromosome 5 open reading frame 4 (C5ORF4), NM_016348.1): 2.76 Fold
Fold (ovarian cancer cells; gene: Deleted in lymphocytic leukemia, 2/DEF = Homo sapiens BCMS-upstream neighbor (BCMSUN), AF264787.1): 0.33 Fold
Fold (ovarian cancer cells; gene: Deleted in lymphocytic leukemia, BCMS-upstream neighbor (BCMSUN) (DLEU2), AF264787.1): 0.40 Fold
Fold (ovarian cancer cells; gene: Dysferlin, limb girdle muscular dystrophy 2B (DYSF), NM_003494.1): 2.16 Fold
Fold (ovarian cancer cells; gene: Dystrophin, dystrophin Dp40 isoform (DMD), NM_004019.1): 2.76 Fold
Fold (ovarian cancer cells; gene: EHT protein, AF068266.1): 2.80 Fold
Fold (ovarian cancer cells; gene: ESTs, Moderately similar to S72399 ras-homolog GTPase rab28 isoform S, AI080106): 7.75 Fold
Fold (ovarian cancer cells; gene: ESTs, Weakly similar to DRPL_Human Atrophin-1 (DRPL) in Huntington's disease (HD) and DRPLA, AI358954): 2.52 Fold
Fold (ovarian cancer cells; gene: ESTs, Weakly similar to DRPL_Human Atrophin-1 (DRPL) in dentatorubral-pallidoluysian atrophy, AI358954): 2.52 Fold
Fold (ovarian cancer cells; gene: Endothelial cell growth factor 1 (platelet-derived)/Thymidine phosphorylase, NM_001953): 0.42 Fold
Fold (ovarian cancer cells; gene: Enhancer of zeste (Drosophila) homolog 2 (EZH2) (USP14), NM_004456.1): 0.47 Fold
Fold (ovarian cancer cells; gene: FLJ23538 fis, highly similar to BETA2 Human MEN1 region clone epsilonbeta (BETA2), AI042152): 0.31 Fold
Fold (ovarian cancer cells; gene: FYN oncogene related to SRC, FGR and YES (FYN), N20923): 0.13 Fold
Fold (ovarian cancer cells; gene: FYN oncogene related to SRC, FGR and YES, c-syn protooncogene, M14333.1): 0.44 Fold
Fold (ovarian cancer cells; gene: Facioscapulohumeral muscular dystrophy (FSHD) gene region, D4Z4 tandem repeat unit, D38024): 2.43 Fold
Fold (ovarian cancer cells; gene: Familial Mediterranean fever locus region, AF098968.1): 0.30 Fold
Fold (ovarian cancer cells; gene: Fibroblast growth factor 2 (basic)(FGF2), NM_002006.1): 0.35 Fold
Fold (ovarian cancer cells; gene: Fibroblast growth factor 18 (FGF18), NM_003862.1): 2.75 Fold
Fold (ovarian cancer cells; gene: Galactosamine (N-acetyl)-6-sulfate sulfatase, NM_000512): 0.52 Fold
Fold (ovarian cancer cells; gene: Glypican-6 (GPC6), AF111178.1): 2.07 Fold
Fold (ovarian cancer cells; gene: Hemochromatosis splice variant 495-2314del, AF144243.1): 3.01 Fold
Fold (ovarian cancer cells; gene: IMAGE:3050107 mRNA, TBC1 domain family, BC001525): 0.67 Fold
Fold (ovarian cancer cells; gene: Keratocan (KERA), NM_007035.2): 0.50 Fold
Fold (ovarian cancer cells; gene: Lipoma cell line Li-538SV40 ectopic sequence from HMGI-C fusion mRNA (LI), AI990940): 0.47 Fold
Fold (ovarian cancer cells; gene: METH1 protein (METH1), AF060152.1): 0.39 Fold
Fold (ovarian cancer cells; gene: Myeloidlymphoid leukemia 2 (MLL2), AF105279.1): 0.31 Fold
Fold (ovarian cancer cells; gene: Myeloidlymphoid or mixed-lineage leukemia, translocated to, 4 (HGC6.3), AB016902.2): 5.07 Fold
Fold (ovarian cancer cells; gene: N-cym protein, NM_006316): 2.38 Fold
Fold (ovarian cancer cells; gene: NICE-5 protein, AW779859): 0.48 Fold
Fold (ovarian cancer cells; gene: Nasopharyngeal carcinoma susceptibility protein (LZ16), NM_013275.1): 0.41 Fold
Fold (ovarian cancer cells; gene: Nephropontin, M83248.1): 2.34 Fold
Fold (ovarian cancer cells; gene: Neuroblastoma, suppression of tumorigenicity 1 (NBL1), NM_005380.1): 3.07 Fold
Fold (ovarian cancer cells; gene: Niban protein (NIBAN), NM_022083.1): 0.21 Fold
Fold (ovarian cancer cells; gene: Novel MAFF LIKE protein, Cluster Incl. AL021977): 0.47 Fold
Fold (ovarian cancer cells; gene: PNAS-128 in leukemia, AF277186.1): 0.36 Fold
Fold (ovarian cancer cells; gene: Peroxisomal biogenesis factor 3 (PEX3), NM_003630.1): 0.43 Fold
Fold (ovarian cancer cells; gene: Peroxisomal biogenesis factor 14 (PEX14), NM_004565.1): 2.06 Fold
Fold (ovarian cancer cells; gene: Promyelocytic leukemia (PML), NM_002675.1): 2.76 Fold
Fold (ovarian cancer cells; gene: Prostate cancer associated protein 5 (PCANAP5), AI299378): 0.23 Fold
Fold (ovarian cancer cells; gene: Prothymosin alpha (PTMA), AF257099): 2.60 Fold
Fold (ovarian cancer cells; gene: Putative c-Myc-responsive (RCL), AA523444): 0.41 Fold
Fold (ovarian cancer cells; gene: RASSF3 isoform A, putative tumor suppressor, AY062002.1): 2.88 Fold
Fold (ovarian cancer cells; gene: RNA binding motif protein 5, putative tumor suppressor (LUCA15), U23946.1): 0.43 Fold
Fold (ovarian cancer cells; gene: Regulatory factor X-associated protein (RFXAP), NM_000538.1): 0.41 Fold
Fold (ovarian cancer cells; gene: Retinitis pigmentosa GTPase regulator (RPGR), NM_000328.1): 0.47 Fold
Fold (ovarian cancer cells; gene: Rhabdoid tumor deletion region protein 1 (RTDR1), NM_014433.1): 2.20 Fold
Fold (ovarian cancer cells; gene: SNRPN upstream reading frame (SNURF), BF114870): 0.39 Fold
Fold (ovarian cancer cells; gene: Sarcoglycan, gamma (35 kD dystrophin-associated glycoprotein), NM_000231.1): 0.04 Fold
Fold (ovarian cancer cells; gene: Similar to vitelliform macular dystrophy (Best disease, bestrophin), BC041664.1): 0.26 Fold
Fold (ovarian cancer cells; gene: Smcx homolog, X chromosome (mouse), NM_004187): 0.61 Fold
Fold (ovarian cancer cells; gene: Sulfite oxidase (SUOX), NM_000456.1): 2.11 Fold
Fold (ovarian cancer cells; gene: Thrombospondin 1 (THBS1), BE999967): 0.42 Fold
Fold (ovarian cancer cells; gene: Thrombospondin 4, NM_003248): 0.58 Fold
Fold (ovarian cancer cells; gene: Thromospondin 4 (THBS4), NM_03248.1): 2.58 Fold
Fold (ovarian cancer cells; gene: Transglutaminase 4 (prostate), NM_003241): 0.24 Fold
Fold (ovarian cancer cells; gene: Translocase of inner mitochondrial membrane 44 (yeast) homolog (TIM44), NM_006351.1): 0.50 Fold
Fold (ovarian cancer cells; gene: Trichorhinophalangeal syndrome I gene (TRPS1), NM_014112.1): 0.36 Fold
Fold (ovarian cancer cells; gene: UDP-galactose-4-epimerase, NM_000403): 0.66 Fold
Fold (ovarian cancer cells; gene: Unknown protein mRNA within the p53 intron 1, U58658.1): 0.45 Fold
Fold (ovarian cancer cells; gene: Vascular endothelial growth factor (VEGF), AF022375.1): 0.47 Fold
Fold (ovarian cancer cells; gene: Vitelliform macular dystrophy (Best disease, bestrophin) (VMD2), NM_004183.1): 0.28 Fold
Fold (ovarian cancer cells; gene: aarF domain containing kinase 4, BC013114): 2.30 Fold
Fold (ovarian cancer cells; gene: v-Myc avian myelocytomatosis viral related oncogene, neuroblastoma derived (MYCN), BC002712.1): 3.99 Fold
Efficacy: percent growth inhibition relative to the untreated control [1]: 92%
time to inhibition of NF-κB reporter activity (NF-κB): ≤ 30 min
blood flow (MRI) ([2]; gavage 60 mg/kg/day): inhibition of blood flow
angiogenesis of glioma tumors (MRI) [2, 3]: inhibited
growth of glioma tumors (MRI) [2, 3]: inhibited
